The results in this text go back to article PMC3492160, “Identification of white campion (Silene latifolia) guaiacol O-methyltransferase involved in the biosynthesis of veratrole, a key volatile for pollinator attraction” (BMC Plant Biology, 2012).

Molecules are shown by their SMILES.

In one assay the test system is T1, SlGOMT2.
T1 construct: no tag removal described
Put plainly: radiometric methylation assay with […]-SAM, ethyl acetate extraction, double reciprocal plot. In kind it is biochemical, Silene latifolia. Particulars: SAM 200 μM constant; 5 mM MgCl2; Tris-HCl pH 7.5; room temperature; apparent Km.

In the next assay the test system is T2, SlGOMT1.
T2 construct: no tag removal described
Described as above. Type of assay: biochemical, Silene latifolia. Particulars: SAM 200 μM constant; 5 mM MgCl2; Tris-HCl pH 7.5; room temperature; apparent Km.

Consider `COc1ccccc1O` [guaiacol], for which the Km was 501 ± 198 µM with SlGOMT2 and 9.79 ± 1.51 µM in the assay with SlGOMT1.
